Results reported in the supplement of paper PMC11061612.

What was measured:
[1] = test system: LU-165 (Small Cell Lung Carcinoma); assay: combination Emax (second highest fraction inhibited in the dose matrix, 72 h); higher = more inhibition; extreme values may be limits of the assay
In short: (§1)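 Cell lines in DMEM/F12 or RPMI with 10% FBS were plated in 1536-well plates, held 24 hours at 37°C, 5% CO2, then given two-drug dose matrices for 72 hours (DMSO typically 0.2%). Viability was read by CellTiter-Glo 2.0 luminescence and scaled as inhibition from 0 (vehicle wells) to 1 (blank wells). Combination Emax is the second-highest inhibition in the matrix; Bliss excess is observed combination effect minus expected EA + EB − EA·EB, EA and EB being single-agent effects.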

[2] = test system: NCI-H2087 (Lung Adenocarcinoma); assay: as above
In short: as §1

[3] = test system: NCI-H1703 (Squamous Cell Lung Carcinoma); assay: as above
In short: as §1

[4] = test system: HCC1395 (Breast Carcinoma); assay: as above
In short: as §1

AU565 (Breast Carcinoma) [5] = assay: as above
In short: as §1

NB13 (Neuroblastoma) = assay: Bliss excess, mean over the matrix (fraction); higher = more synergy
In short: as §1

[6] = test system: LS-411N (Colorectal Carcinoma); assay: as above
In short: as §1

[7] = test system: NCI-H716 (Colorectal Carcinoma); assay: as above
In short: as §1

PEO1 (Ovarian Carcinoma) = assay: as above
In short: as §1

EW-7 (Ewing's Sarcoma) = assay: as above
In short: as §1

[8] = test system: CA46 (Burkitt's Lymphoma); assay: as above
In short: as §1

COLO-792 (Melanoma) = assay: as above
In short: as §1

[9] = test system: NCI-H441 (Lung Adenocarcinoma); assay: as above
In short: as §1

[10] = test system: MHH-ES-1 (Ewing's Sarcoma); assay: as above
In short: as §1

WM1552C (Melanoma) = assay: as above
In short: as §1

[11] = test system: NCI-H1703 (Squamous Cell Lung Carcinoma); assay: as above
In short: as §1

[12] = test system: JHU-022 (Oral Cavity Carcinoma); assay: as above
In short: as §1

A204 (Rhabdomyosarcoma) = assay: as above
In short: as §1

AU565 (Breast Carcinoma) [13] = assay: as above
In short: as §1

[14] = test system: ESO26 (Esophageal Adenocarcinoma); assay: as above
In short: as §1
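Wherever Bliss excess, mean over the matrix is given: after 72 h of two-drug dosing.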

Compound	combination Emax [1]	combination Emax [2]	combination Emax [3]	combination Emax [4]	combination Emax (AU565 (Breast Carcinoma) [5])	Bliss excess (NB13 (Neuroblastoma))	Bliss excess [6]	Bliss excess [7]	Bliss excess (PEO1 (Ovarian Carcinoma))	Bliss excess (EW-7 (Ewing's Sarcoma))	Bliss excess [8]	Bliss excess (COLO-792 (Melanoma))	Bliss excess [9]	Bliss excess [10]	Bliss excess (WM1552C (Melanoma))	Bliss excess [11]	Bliss excess [12]	Bliss excess (A204 (Rhabdomyosarcoma))	Bliss excess (AU565 (Breast Carcinoma) [13])	Bliss excess [14]
NC1(C(=O)N[C@@H](CCO)c2ccc(Cl)cc2)CCN(c2ncnc3[nH]ccc23)CC1 [Capivasertib] + Cn1cnc2c(F)c(Nc3ccc(Br)cc3Cl)c(C(=O)NOCCO)cc21 [Selumetinib] (first compound max 10 µM, 7x7, partner max 10 µM)	0.444	0.539	0.606	0.425	0.64	-0.0062	0.0005	0.119	-0.0358	0.0429	0.0039	0.0139	-0.0041	0.0114	0.036	0.0358	-0.0397	0.0013	0.0183	0.0818
COc1cccc2c1C(=O)c1c(O)c3c(c(O)c1C2=O)C[C@@](O)(C(=O)CO)C[C@@H]3O[C@H]1C[C@H](N)[C@H](O)[C@H](C)O1 [Doxorubicin] + Cc1cc2ncnn2cc1Nc1ncc2c(n1)n(C1CCOCC1)c(=O)n2C [AZD7648] (first compound max 1 µM, 7x7, partner max 10 µM)	0.337	0.655	0.932	0.401	0.733	0.0808	0.0365	0.0113	-0.0214	0.0058	0.0813	-0.0081	0.0125	0.0697	0.0398	0.0451	-0.0307	0.0782	0.0753	0.032
CS(=O)(=O)CCNCc1ccc(-c2ccc3ncnc(Nc4ccc(OCc5cccc(F)c5)c(Cl)c4)c3c2)o1 [Lapatinib] + C[C@@H](Oc1cc(-c2cnn(C3CCNCC3)c2)cnc1N)c1c(Cl)ccc(F)c1Cl [Crizotinib] (first compound max 10 µM, 7x7, partner max 10 µM)	0.441	0.395	0.746	0.906	0.959	-0.0778	-0.033	-0.0217	-0.0422	-0.0465	0.0216	-0.0237	-0.0412	-0.0333	-0.0534	-0.0733	-0.0541	-0.0279	-0.0287	-0.0293
CC(=O)c1c(C)c2cnc(Nc3ccc(N4CCNCC4)cn3)nc2n(C2CCCC2)c1=O [Palbociclib] + CC1(C)CCC(CN2CCN(c3ccc(C(=O)NS(=O)(=O)c4ccc(NCC5CCOCC5)c([N+](=O)[O-])c4)c(Oc4cnc5[nH]ccc5c4)c3)CC2)=C(c2ccc(Cl)cc2)C1 [Venetoclax] (first compound max 10 µM, 7x7, partner max 1 µM)	0.115	0.0514	0.486	0.0711	0.262	-0.103	-0.0247	0.0345	-0.0062	0.0071	-0.0004	0.0153	-0.0237	0.0193	-0.0334	0.0004	-0.0613	0.0194	0.0161	-0.0364
CC(=O)c1c(C)c2cnc(Nc3ccc(N4CCNCC4)cn3)nc2n(C2CCCC2)c1=O [Palbociclib] + Cc1c2c(nn1C)CSCc1cc(n(C)n1)CSc1cc(c3ccccc3c1)OCCCc1c(C(=O)O)n(C)c3c-2c(Cl)ccc13 [AZD5991] (first compound max 10 µM, 7x7, partner max 1 µM)	0.167	0.218	0.815	0.419	0.998	0.0041	-0.0397	-0.0343	-0.0483	-0.0005	-0.0242	-0.105	-0.0362	-0.008	-0.0565	-0.0636	-0.0971	-0.026	-0.0211	-0.0467
CC(=O)c1c(C)c2cnc(Nc3ccc(N4CCNCC4)cn3)nc2n(C2CCCC2)c1=O [Palbociclib] + Cn1cnc2c(F)c(Nc3ccc(Br)cc3Cl)c(C(=O)NOCCO)cc21 [Selumetinib] (first compound max 10 µM, 7x7, partner max 10 µM)	0.0618	0.501	0.584	0.0651	0.277	-0.0391	0.0131	-0.0843	-0.0055	0.0709	-0.0504	-0.0127	0.0506	-0.0061	-0.0078	0.0303	0.0858	-0.0261	0.0052	0.0104
COc1cccc(OCCCN)c1-c1cc(Nc2cnc(C#N)cn2)n[nH]1 [Prexasertib] + C=CCn1c(=O)c2cnc(Nc3ccc(N4CCN(C)CC4)cc3)nc2n1-c1cccc(C(C)(C)O)n1 [AZD1775] (first compound max 1 µM, partner max 1 µM)	0.604	0.804	0.985	0.903	0.891	-0.0347	-0.0017	0.0167	0.0825	0.0157	0.0924	0.0236	-0.0383	0.0402	0.0412	0.066	0.0861	0.0437	0.0991	0.0278
COc1cccc(OCCCN)c1-c1cc(Nc2cnc(C#N)cn2)n[nH]1 [Prexasertib] + CCc1c2c(nc3ccc(O)cc13)-c1cc3c(c(=O)n1C2)COC(=O)[C@]3(O)CC [SN-38] (first compound max 1 µM, 7x7, partner max 0.3 µM)	0.642	0.918	0.971	0.898	0.949	0.0263	0.0331	0.0825	-0.0015	-0.0713	0.0035	0.087	-0.0772	0.0134	-0.0306	-0.0374	-0.112	-0.0375	-0.0213	0.0483
COc1cccc(OCCCN)c1-c1cc(Nc2cnc(C#N)cn2)n[nH]1 [Prexasertib] + CN(C)CCCOc1ccc(-c2ccc3ncc4c(c3c2)n(C2CCOCC2)c(=O)n4C)cn1 [AZD0156] (first compound max 1 µM, 7x7, partner max 1 µM)	0.561	0.761	0.966	0.857	0.714	-0.0268	-0.0336	0.025	-0.0168	0.025	0.0713	-0.0447	-0.0994	0.0004	-0.0036	-0.0295	-0.0231	-0.018	-0.073	0.0207
COc1cccc(OCCCN)c1-c1cc(Nc2cnc(C#N)cn2)n[nH]1 [Prexasertib] + C[C@@H]1COCCN1C2=NC(=NC(=C2)C3(CC3)[S@](=N)(=O)C)C4=C5C=CNC5=NC=C4 [AZD6738] (first compound max 1 µM, 7x7, partner max 10 µM)	0.565	0.797	0.97	0.86	0.633	-0.0603	-0.0349	-0.0432	-0.0083	-0.0437	-0.0755	-0.0376	0.0009	-0.0161	-0.0372	0.0047	-0.0238	-0.0542	-0.0612	-0.0681
COc1cccc(OCCCN)c1-c1cc(Nc2cnc(C#N)cn2)n[nH]1 [Prexasertib] + Cc1cc2ncnn2cc1Nc1ncc2c(n1)n(C1CCOCC1)c(=O)n2C [AZD7648] (first compound max 1 µM, 7x7, partner max 10 µM)	0.58	0.801	0.951	0.855	0.745	-0.023	-0.0082	0.0577	-0.0117	-0.0118	-0.0182	0.0103	0.0071	-0.004	-0.0385	-0.0192	-0.0661	-0.091	0.0086	0.0142
COc1cccc(OCCCN)c1-c1cc(Nc2cnc(C#N)cn2)n[nH]1 [Prexasertib] + O=C(c1cc(Cc2n[nH]c(=O)c3ccccc23)ccc1F)N1CCN(C(=O)C2CC2)CC1 [Olaparib] (first compound max 1 µM, 7x7, partner max 10 µM)	0.424	0.784	0.978	0.88	0.735	-0.0317	-0.271	-0.0673	-0.0183	-0.0465	-0.192	0.0173	-0.101	0.0048	-0.134	-0.0537	-0.0537	-0.0675	-0.0097	-0.0191
CCc1c2c(nc3ccc(O)cc13)-c1cc3c(c(=O)n1C2)COC(=O)[C@]3(O)CC [SN-38] + CN(C)CCCOc1ccc(-c2ccc3ncc4c(c3c2)n(C2CCOCC2)c(=O)n4C)cn1 [AZD0156] (first compound max 0.3 µM, 7x7, partner max 1 µM)	0.517	0.921	0.875	0.512	0.8	0.0313	0.0079	0.0129	-0.0037	0.0647	0.0951	-0.011	-0.0052	0.0449	0.0013	0.0117	-0.0034	0.0736	-0.0621	-0.0042
Cn1cnc2c(F)c(Nc3ccc(Br)cc3Cl)c(C(=O)NOCCO)cc21 [Selumetinib] + C=CCn1c(=O)c2cnc(Nc3ccc(N4CCN(C)CC4)cc3)nc2n1-c1cccc(C(C)(C)O)n1 [AZD1775] (first compound max 10 µM, partner max 1 µM)	0.261	0.559	0.944	0.425	0.644	-0.0591	-0.0554	-0.0992	-0.0059	-0.0115	-0.0625	0.0092	0.0069	-0.0733	-0.0674	-0.0612	0.0283	-0.0511	-0.0507	-0.0853
Cn1cnc2c(F)c(Nc3ccc(Br)cc3Cl)c(C(=O)NOCCO)cc21 [Selumetinib] + CC(C)n1c(=O)n(C)c2cnc3cc(F)c(-c4ccc(OCCCN5CCCCC5)nc4)cc3c21 [AZD1390] (first compound max 10 µM, 7x7, partner max 0.3 µM)	0.213	0.449	0.122	0.192	0.146	-0.0532	-0.0107	0.0093	-0.0118	-0.0117	-0.006	-0.0088	-0.0394	-0.0328	-0.0102	-0.0158	0.02	-0.0567	0.005	-0.0471
